Laboratory results as given in patent US7585851B2, “3′-prodrugs of 2′-deoxy-β-L-nucleosides” (priority 2000, dated 2009).

Tests used:
[1] = tested on: human hepatoma cell line 2.2.15; experiment: Cytotoxicity in 2.2.15 cells; settings: 2.2.15 cells; 50% inhibition of neutral red dye uptake (Table 25)
[2] = tested on: human erythroid burst-forming (BFU-E) progenitor cells; format: cell-based; settings: human bone marrow clonogenic assay
Excerpt: (§1) In particular, anemia and neutropenia are the most common drug-related clinical toxicities associated with the anti-HIV drug zidovudine (ZDV).

[3] = tested on: human granulocyte-macrophage colony-forming (CFU-GM) progenitor cells; format: cell-based; settings: human bone marrow clonogenic assay
Excerpt: as §1

[4] = Cytotoxicity in 2.2.15 cells; settings: human, 2.2.15 hepatoma cells
[5] = tested on: HBV; experiment: Anti-HBV activity in HBV-expressing 2.2.15 cells (HBV DNA reduction)

| Compound | CC50 [1] [µM] | IC50 [2] [µM] | IC50 [3] [µM] | CC50 [4] [µM] | S.I. (CC50/EC90) ([5]; 2.2.15 cells) | EC90 ([5]; Hepatitis B virus) [µM] |
| --- | --- | --- | --- | --- | --- | --- |
| Cc1cn([C@@H]2C[C@@H](O)[C@H](CO)O2)c(=O)[nH]c1=O [L-dT, β-L-2′-deoxythymidine] | 3020 | – | – | – | – | – |
| Nc1ccn([C@@H]2CS[C@H](CO)O2)c(=O)n1 [lamivudine, (−)-enantiomer of cis-2-hydroxymethyl-5-(cytosin-1-yl)-1,3-oxathiolane, reference compound] | – | > 10 | > 10 | > 1000 | >5,000 | 0.18 ± 0.007 |
